Laboratory results as given in publication PMC4212957, “The serodominant secreted effector protein of Salmonella, SseB, is a strong CD4 antigen containing an immunodominant epitope presented by diverse HLA class II alleles” (Immunology, 2014).

Legend:
[1] = target: T1, HLA-DRB1*03:01 (Homo sapiens, UniProt P01903+P01911, A100K/A102G/A103R/A169T/F55Y/I96L/K41T/L162R/M171V/P40S/Q125H/Q178H/Q39Y/R42S/S66N/T106N/T262R/W38E/Y61H); test: Peptide/HLA-DR binding, competitive ELISA; details: ratio IC50 of peptide / IC50 of reference peptide MT2-16, lower = higher affinity, ratio 20 or less high, 20–100 moderate, three independent experiments
T1 construct: HLA-DR heterodimers were purified from homozygous Epstein–Barr virus B-lymphoblastoid cell lines; host or cells: homozygous EBV B-lymphoblastoid cell line
Description: (§1) HLA-DR heterodimers were purified from homozygous Epstein–Barr virus B-lymphoblastoid cell lines (HPA Culture Collections, Salisbury, UK) by affinity chromatography with the monomorphic HLA-DRα monoclonal antibody, L243.[29],[30] Binding of the SseB peptide panel to the HLA-DR molecules HLA-DRB1*01:01, 03:01, 04:01, 07:01, 09:01, 11:01, 12:02, 15:01, 15:02 was assessed by competitive ELISA, as previously described, using an automated workstation.[29],[30] We evaluated the peptide concentration able to prevent binding of 50% of the labelled peptide (IC50). Data were expressed as relative affinity: ratio of the IC50 of the peptide to the IC50 of the reference peptide, which is a high binder to the HLA class II molecule. Unlabelled forms of the biotinylated peptides were used as reference peptides.

[2] = target: T2, HLA-DRB1*09:01 (Homo sapiens, UniProt P01903+P01911, A100R/A103E/D57H/D86V/F55Y/F60I/F76Y/I96F/K127E/L162R/M171V/P40D/Q125H/Q99R/R33Q/R42F/S133A/S66N/T210M/V115G/W38K/Y107V/Y59G/Y89S); test: Peptide/HLA-DR binding, competitive ELISA; details: ratio IC50 of peptide / IC50 of reference peptide CTP 427–441, lower = higher affinity, ratio 20 or less high, 20–100 moderate, three independent experiments
T2 construct: HLA-DR heterodimers were purified from homozygous Epstein–Barr virus B-lymphoblastoid cell lines; host or cells: homozygous EBV B-lymphoblastoid cell line
Description: as §1

[3] = target: HLA-DRB1*12:02 (Homo sapiens, UniProt P01903+P01911, A100R/A169T/D57E/D86V/F55L/H45Y/I96F/K41T/L162R/M171V/P40S/Q125H/Q178H/Q39Y/Q99D/R42G/S66L/T262R/V114A/V67L/W38E/Y59H/Y61H/Y89S); test: Peptide/HLA-DR binding, competitive ELISA; details: ratio IC50 of peptide / IC50 of reference peptide TFR 141–155, lower = higher affinity, ratio 20 or less high, 20–100 moderate, three independent experiments
Description: as §1

[4] = target: T3, HLA-DRB1*15:02 (Homo sapiens, UniProt P01903+P01911, V115G); test: Peptide/HLA-DR binding, competitive ELISA; details: ratio IC50 of peptide / IC50 of reference peptide TFR 607–620, lower = higher affinity, ratio 20 or less high, 20–100 moderate, three independent experiments
T3 construct: HLA-DR heterodimers were purified from homozygous Epstein–Barr virus B-lymphoblastoid cell lines; host or cells: homozygous EBV B-lymphoblastoid cell line
Description: as §1

[5] = tested on: HLA-DR heterodimers; test: Breadth of binding across the HLA-DR panel; parameters: species or system human; details: of nine HLA-DR molecules screened; competitive ELISA
Description: as §1
The HLA-DR peptide-binding assay used here was designed to give a strong coverage of commonly expressed alleles across diverse populations. For example, the DR1, 3, 4, 7, 11 and 1501 heterodimers cumulatively cover approximately 80% of individuals in Caucasian populations, whereas DR9, DR1202 and DR1502 are rare in Caucasian populations but are found in around a third of individuals in many South East Asian populations. Of the 18 peptides encompassing the SseB overlapping peptide library, 15 show significant HLA-DR binding (Table2). Eight peptides were able to bind specifically to only one or two alleles, but the seven other binders were able to bind more heterodimers. It is noteworthy that there are three peptides, p2, p11 and p18, with the property of binding 6, 7 and 8 different HLA-DR heterodimers, respectively. They span HLA-DRB sequences with rather diverse peptide-binding pockets.

[6] = tested on: PBMCs; test: Human IFN-γ ELISpot; format: cell-based; details: 50 μg/ml peptide, 2 × 10^5 PBMCs, 24 hr; both cohorts; positive if > 2 SD above no-peptide/protein control
Description: CD4 T cell responses to SseB were analysed in peripheral blood mononuclear cell (PBMC) samples from healthy control donors with no reported clinical history of Salmonella infection and from donors who had been experimentally challenged with S. Typhi 12 months previously as described elsewhere.[28] Healthy control blood samples were collected with informed consent, under the approval of Ethics REC reference number 08/H0707/173. The S. Typhi challenge participants were recruited by the Oxford Vaccine Group, University of Oxford and the study was performed at the Centre for Clinical Vaccinology and Tropical Medicine, Oxford. Ethics approval was obtained from the NRES Committee South Central – Oxford A (11/SC/0302). Written, informed consent was provided by all participants. A pre-determined bacterial dose (10^4 colony-forming units) of challenge agent (Quailes strain) was delivered by oral ingestion suspended in a sodium bicarbonate solution.[28] Study exclusion criteria included previous typhoid vaccination, residence in a typhoid endemic country for over 6 months and known diagnosis of a probably or confirmed typhoid infection. Blood samples were collected and PBMCs were purified by Lymphoprep density gradient separation.
Human IFN-γ ELISpot assays were run using reagents from Mabtech (Stockholm, Sweden). Briefly, 2 × 10^5 thawed PBMCs were incubated in pre-coated human IFN-γ ELISpot plates, in triplicate, with 50 μg/ml of SseB peptide or recombinant protein (25 μg/ml) in RPMI-1640 medium containing 2 mM L-glutamine, 50 U/ml penicillin G, 50 μg/ml streptomycin sulphate and 10% fetal calf serum. […] Developed plates were left to dry before spot counting using an AID ELISpot reader (Autoimmun Diagnostika GMBH, Straßberg, Germany). […] To better define HLA restriction, human donor ELISpot responses were also analysed in the presence of HLA class II blocking monoclonal antibodies at a final concentration of 25 μg/ml: L243 (anti-HLA-DRα), SPVL-3 (anti-HLA-DQ), B7/21 (anti-HLA-DP) and control mouse IgG. […]

| Substance | Relative binding affinity of peptide to HLA-DR molecules DRB1*0301 [1] | Relative binding affinity of peptide to HLA-DR molecules DRB1*0901 [2] | Relative binding affinity of peptide to HLA-DR molecules DRB1*1202 [3] | Relative binding affinity of peptide to HLA-DR molecules DRB1*1502 [4] | number of different HLA-DR heterodimers bound [5] | human CD4 T-cell IFN-γ ELISpot response to peptide [6] |
| --- | --- | --- | --- | --- | --- | --- |
| 2: SseB overlapping library peptide, residues 11–30 (QNPIVFKNSFGVSNADTGSQ) [Peptide 2] | > 119 | 10 | 59 | 5 | 6 | largest and most common peptide responses |
| 11: SseB overlapping library peptide, residues 101–120 (EDVIKYMRDNGILIDGMTID) [Peptide 11] | > 119 | 34 | 8 | 37 | 7 | largest and most common peptide responses |
| AVLTQLTGLISKWGEISSMIAQKTYS [Peptide 18, SseB overlapping library peptide, residues 171–196] | > 119 | 21 | 4 | 63 | 8 | less frequent among the epitopes recognized |
